Reference: PMC8881610 (Nature Communications, 2022)
Like-named read-outs stand apart in the source and are kept apart here. Where a SMILES comes first, the peptide text is derived from it. [ ]: non-standard residue; d: D form. Aib = CC(C)(N)C(=O)O

Legend:
Format in all cases: cell-based
[1] = molecular target: T1, GIPR (Homo sapiens, UniProt P48546, T345F); assay: cAMP accumulation assay (LANCE Ultra cAMP kit), GIPR WT, mutant or modified constructs; set-up: acylated tirzepatide to the full-length or modified; Flag; expressed in transfected cells; host or cells: HEK293T; conditions: GIPR T345F, HEK293T; for EC50: read-out: cAMP pEC50 (converted)
T1 sequence (P48546 22-466 T345F): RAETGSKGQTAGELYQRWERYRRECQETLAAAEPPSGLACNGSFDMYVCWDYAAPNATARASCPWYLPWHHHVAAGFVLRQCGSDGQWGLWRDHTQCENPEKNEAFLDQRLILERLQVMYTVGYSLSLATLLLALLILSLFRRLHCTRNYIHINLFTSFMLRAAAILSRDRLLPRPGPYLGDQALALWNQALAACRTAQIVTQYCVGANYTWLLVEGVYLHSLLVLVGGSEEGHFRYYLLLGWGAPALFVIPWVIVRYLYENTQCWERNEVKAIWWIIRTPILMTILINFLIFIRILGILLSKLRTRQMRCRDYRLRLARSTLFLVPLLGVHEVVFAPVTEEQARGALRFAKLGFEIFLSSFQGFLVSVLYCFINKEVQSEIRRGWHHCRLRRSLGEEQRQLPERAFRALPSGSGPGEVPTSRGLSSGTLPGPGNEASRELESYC
Description: (§1) Human embryonic kidney 293 cells containing SV40 large T-antigen (HEK293T) were cultured in DMEM (Gibco) supplemented with 10% (v/v) fetal bovine serum (FBS, Gibco), 1 mM sodium pyruvate (Gibco) and 100 units/mL penicillin and 100 μg/mL streptomycin at 37 °C in 5% CO2. Chinese hamster ovary (CHO-K1) cells were cultured in F-12 (Gibco) containing 10% FBS, 100 units/mL penicillin and 100 μg/mL streptomycin at 37 °C in 5% CO2. For cAMP and receptor expression assays, HEK293T cells were seeded into 6-well cell culture plates at a density of 7 × 10^5 cells per well. After overnight incubation, cells were transfected with GIPR, GLP-1R or GCGR construct using Lipofectamine 2000 or Lipofectamine 3000 transfection reagent (Invitrogen). For whole-cell binding assay, CHO-K1 cells were seeded into 96-well fibronectin-treated cell culture plates at a density of 3 × 10^4 cells per well. After overnight incubation, cells were transfected with GIPR, GLP-1R or GCGR construct using Lipofectamine 2000 transfection reagent (Invitrogen). Following 24 h culturing, the transfected cells were ready for use.
A BRIL fusion protein was added at the N-terminal of the ECD with a TEV protease site and 2GSA linker between them. C-terminal 45 amino acids (Q422-C466) of the receptor were truncated. LgBiT was added at the end of helix 8 with a 15-amino acid (15AA) polypeptide linker in between, followed by a TEV protease cleavage site and an OMBP-MBP tag. […] The construct and various mutants of human GIPR were cloned into pcDNA3.1 vector for cAMP accumulation and whole-cell binding assays.
(§2) For GIPR, GLP-1R and GCGR, multi-targeting agonist stimulated cAMP accumulation was measured by a LANCE Ultra cAMP kit (PerkinElmer). After 24 h culture, the transfected cells were seeded into 384-well microtiter plates at a density of 3,000 cells per well in HBSS supplemented with 5 mM HEPES, 0.1% (w/v) BSA or 0.1% (w/v) casein and 0.5 mM 3-isobutyl-1-methylxanthine. The cells were stimulated with different concentrations of peptide agonists for 40 min at RT. Eu-cAMP tracer and ULight^TM-anti-cAMP were then diluted by cAMP detection buffer and added to the plates separately to terminate the reaction. Plates were incubated at RT for 1 h and the fluorescence intensity measured at 620 nm and […] by an EnVision multilabel plate reader (PerkinElmer).

[2] = molecular target: GCGR (Homo sapiens, UniProt P47871); assay: cAMP accumulation assay, GCGR WT, mutant or modified constructs; set-up: V5 (C); 6×His (C); expressed in transfected cells; host or cells: HEK293T; conditions: for EC50 / Emax: HEK293T; for Emax: HEK-293T
Chain of GCGR (P47871 26-477): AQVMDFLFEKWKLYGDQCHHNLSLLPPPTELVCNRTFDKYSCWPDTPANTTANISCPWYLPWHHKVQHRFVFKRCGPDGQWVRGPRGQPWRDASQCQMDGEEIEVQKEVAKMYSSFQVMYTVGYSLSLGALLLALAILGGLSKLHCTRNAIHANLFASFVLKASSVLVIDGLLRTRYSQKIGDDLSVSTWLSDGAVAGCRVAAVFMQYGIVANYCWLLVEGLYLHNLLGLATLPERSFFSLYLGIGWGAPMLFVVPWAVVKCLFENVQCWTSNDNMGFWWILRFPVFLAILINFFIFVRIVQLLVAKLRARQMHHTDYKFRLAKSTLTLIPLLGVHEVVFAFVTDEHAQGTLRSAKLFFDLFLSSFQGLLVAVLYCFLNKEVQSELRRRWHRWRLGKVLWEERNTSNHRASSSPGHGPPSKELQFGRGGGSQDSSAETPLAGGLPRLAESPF
Description: as §1, with “use. […]” for “use.”
as §2

[3] = molecular target: GLP-1R (Homo sapiens, UniProt P43220, W214A); assay: cAMP accumulation assay, GLP-1R WT, mutant or modified constructs; set-up: Flag; expressed in transfected cells; host or cells: HEK293T; conditions: GLP-1R W214A, HEK293T; for Emax: HEK-293T
Chain of GLP-1R (Homo sapiens, UniProt P43220, W214A) (P43220 24-463 W214A): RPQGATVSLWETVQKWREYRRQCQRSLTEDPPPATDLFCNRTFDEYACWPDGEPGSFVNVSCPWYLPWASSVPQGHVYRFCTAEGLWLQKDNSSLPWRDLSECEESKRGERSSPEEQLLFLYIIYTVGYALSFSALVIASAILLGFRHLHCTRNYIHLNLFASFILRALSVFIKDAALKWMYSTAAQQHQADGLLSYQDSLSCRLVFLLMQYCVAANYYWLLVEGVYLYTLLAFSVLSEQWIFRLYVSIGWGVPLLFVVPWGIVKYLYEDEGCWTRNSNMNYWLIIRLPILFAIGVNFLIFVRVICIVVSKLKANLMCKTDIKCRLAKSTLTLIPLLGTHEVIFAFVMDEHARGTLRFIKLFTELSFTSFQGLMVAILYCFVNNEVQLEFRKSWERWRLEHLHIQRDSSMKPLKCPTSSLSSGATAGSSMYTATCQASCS
Method in brief: (§3)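 HEK293T cells transiently expressing wild-type, mutant or modified human GLP-1R (HA signal peptide constructs) were used. Cells were stimulated with peptide agonists for 40 min at room temperature in HBSS with 0.5 mM IBMX and 0.1% BSA or casein. cAMP was quantified by LANCE Ultra TR-FRET (620/650 nm).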

[4] = molecular target: GLP-1R (Homo sapiens, UniProt P43220, Y148A); assay: as above; set-up: Flag; expressed in transfected cells; host or cells: HEK293T; conditions: GLP-1R Y148A, HEK293T; for Emax: HEK-293T
Chain of GLP-1R (Homo sapiens, UniProt P43220, Y148A) (P43220 24-463 Y148A): as the sequence (P43220 24-463 W214A) above, with Y125A, A191W counted along it
Method in brief: as §3

[5] = GCGR WT, 0.1% BSA, read-out: cAMP accumulation Emax
[6] = GCGR WT, 0.1% casein, read-out: cAMP accumulation Emax
[7] = read-out: cAMP pEC50 (converted)

Compound | EC50 [1] [pM] | Emax ([1]; HEK-293T) [%] | EC50 ([2]; GCGR WT, read-out: cAMP pEC50 (converted)) [pM] | EC50 ([2]; GCGR, n = 4, SEM, read-out: cAMP pEC50 ± S.E.M. (converted)) [pM] | Emax [2, 5] [%] | Emax [2, 6] [%] | Emax ([2]; GCGR WT, read-out: cAMP Emax) [%] | Emax ([2]; GCGR, n = 4, SEM, read-out: cAMP Emax ± S.E.M.) [%] | EC50 [3, 7] [pM] | Emax [3] [%] | EC50 [4, 7] [pM] | Emax [4] [%] | EC50 ([2]; GCGR WT, 0.1% BSA, read-out: cAMP accumulation pEC50 (converted)) [pM] | reduction of cAMP accumulation vs peptide 20 ([2]; GCGR, 0.1% BSA) [fold] | EC50 for cAMP accumulation relative to peptide 20 ([2]; GCGR, 0.1% casein)
CCCCCCCCCCCCCCCC(=O)N[C@@H](CCC(=O)NCCCC[C@H](NC(=O)[C@H](CC(=O)O)NC(=O)[C@H](CO)NC(=O)[C@@H](NC(=O)[C@H](Cc1ccccc1)NC(=O)[C@@H](NC(=O)CNC(=O)[C@H](CCC(N)=O)NC(=O)C(C)(C)NC(=O)[C@@H](N)Cc1c[nH]cn1)[C@@H](C)O)[C@@H](C)O)C(=O)N[C@@H](CO)C(=O)N[C@@H](CCCCN)C(=O)N[C@@H](Cc1ccc(O)cc1)C(=O)N[C@@H](CC(C)C)C(=O)N[C@@H](CC(=O)O)C(=O)N[C@@H](CCC(=O)O)C(=O)N[C@@H](CCCNC(=N)N)C(=O)N[C@@H](C)C(=O)N[C@@H](C)C(=O)N[C@@H](CCC(N)=O)C(=O)N[C@@H](CC(=O)O)C(=O)N[C@@H](Cc1ccccc1)C(=O)N[C@H](C(=O)N[C@@H](CCC(N)=O)C(=O)N[C@@H](Cc1c[nH]c2ccccc12)C(=O)N[C@@H](CC(C)C)C(=O)N[C@@H](CC(C)C)C(=O)N[C@@H](CC(=O)O)C(=O)NCC(=O)NCC(=O)N1CCC[C@H]1C(=O)N[C@@H](CO)C(=O)N[C@@H](CO)C(=O)NCC(=O)N[C@@H](C)C(=O)N1CCC[C@H]1C(=O)N1CCC[C@H]1C(=O)N1CCC[C@H]1C(=O)N[C@@H](CO)C(N)=O)C(C)C)C(=O)O [Peptide 20] | 7.94 | 99.6 ± 2.09 | 5.62 | 2.63 | 101 ± 1.36 | 100.2 ± 0.86 | 99.3 ± 1.73 | 101 ± 1.68 | 9.77 | 100.4 ± 0.94 | 5.01 | 101 ± 1.26 |  |  | 
CC(C)C[C@H](NC(=O)[C@H](CC(C)C)NC(=O)[C@H](Cc1c[nH]c2ccccc12)NC(=O)[C@H](CCC(N)=O)NC(=O)[C@@H](NC(=O)[C@H](Cc1ccccc1)NC(=O)[C@H](CC(=O)O)NC(=O)[C@H](CCC(N)=O)NC(=O)[C@H](C)NC(=O)[C@H](C)NC(=O)[C@H](CCCNC(=N)N)NC(=O)[C@H](CCC(=O)O)NC(=O)[C@H](CC(=O)O)NC(=O)[C@H](CC(C)C)NC(=O)[C@H](Cc1ccc(O)cc1)NC(=O)[C@H](CCCCN)NC(=O)[C@H](CO)NC(=O)[C@H](CCCCN)NC(=O)[C@H](CC(=O)O)NC(=O)[C@H](CO)NC(=O)[C@@H](NC(=O)[C@H](Cc1ccccc1)NC(=O)[C@@H](NC(=O)CNC(=O)[C@H](CCC(N)=O)NC(=O)C(C)(C)NC(=O)[C@@H](N)Cc1c[nH]cn1)[C@@H](C)O)[C@@H](C)O)C(C)C)C(=O)N[C@@H](CC(=O)O)C(=O)NCC(=O)NCC(=O)N1CCC[C@H]1C(=O)N[C@@H](CO)C(=O)N[C@@H](CO)C(=O)NCC(=O)N[C@@H](C)C(=O)N1CCC[C@H]1C(=O)N1CCC[C@H]1C(=O)N1CCC[C@H]1C(=O)N[C@@H](CO)C(N)=O [Non-lipidated peptide 20] (H-H[Aib]QGTFTSDKSKYLDERAAQDFVQWLLDGGPSSGAPPPS-NH2; N-terminus and C-terminus assumed) |  |  |  |  | 105 ± 2.16 | 103 ± 1.98 |  |  |  |  |  |  | 1950 | 759 | −1,514 fold
CC[C@H](C)[C@H](NC(=O)[C@H](CC(C)C)NC(=O)[C@H](Cc1c[nH]c2ccccc12)NC(=O)[C@H](CCC(N)=O)NC(=O)[C@@H](NC(=O)[C@H](Cc1ccccc1)NC(=O)[C@H](C)NC(=O)[C@H](CCCCNC(=O)COCCOCCNC(=O)COCCOCCNC(=O)CC[C@H](NC(=O)CCCCCCCCCCCCCCCCCCC(=O)O)C(=O)O)NC(=O)[C@H](CCC(N)=O)NC(=O)[C@H](C)NC(=O)[C@@H](NC(=O)[C@H](CCCCN)NC(=O)[C@H](CC(=O)O)NC(=O)[C@H](CC(C)C)NC(=O)C(C)(C)NC(=O)[C@@H](NC(=O)[C@H](CO)NC(=O)[C@H](Cc1ccc(O)cc1)NC(=O)[C@H](CC(=O)O)NC(=O)[C@H](CO)NC(=O)[C@@H](NC(=O)[C@H](Cc1ccccc1)NC(=O)[C@@H](NC(=O)CNC(=O)[C@H](CCC(=O)O)NC(=O)C(C)(C)NC(=O)[C@@H](N)Cc1ccc(O)cc1)[C@@H](C)O)[C@@H](C)O)[C@@H](C)CC)[C@@H](C)CC)C(C)C)C(=O)N[C@@H](C)C(=O)NCC(=O)NCC(=O)N1CCC[C@H]1C(=O)N[C@@H](CO)C(=O)N[C@@H](CO)C(=O)NCC(=O)N[C@@H](C)C(=O)N1CCC[C@H]1C(=O)N1CCC[C@H]1C(=O)N1CCC[C@H]1C(=O)N[C@@H](CO)C(N)=O [Tirzepatide] | 14.1 |  |  |  |  |  |  |  |  | 99.1 ± 1.05 |  | 102 ± 2.33 |  |  | 
